Results as given in patent publication EP0363856A1, “Derivative of coumarin, process for its preparation and its use” (HOECHST AKTIENGESELLSCHAFT, priority 1988, dated 1990).

Target: T1, Angereicherte γ-Glutamyl-Transpeptidasen (Bacillus subtilis subsp. natto, UniProt P63186)
T1 construct: Angereicherte γ-Glutamyl-Transpeptidasen der in Beispiel 3 genannten Mikroorganismen; endogenous in cells; host or cells: Bacillus subtilis "natto" IFO 3025, enzyme enriched from the culture
Experiment: Incubation of enriched enzyme with cephalosporin substrates (hydrolysis to D-α-Aminoadipinsäure and nucleus)
Format: biochemical
Details: enriched enzyme from Bacillus subtilis; hydrolysis to D-α-Aminoadipinsäure and Desacetyl-7ACA or 7ACA
Source text: Angereicherte γ-Glutamyl-Transpeptidasen der in Beispiel 3 genannten Mikroorganismen wurden mit Desacetyl-Cephalosporin C inkubiert. Nur das Enzym aus Bacillus subtilis, welches auch AAA-AMC spaltet, kann Desacetyl-Cephalosporin C und Cephalosporin C zu D-α-Aminoadipinsäure und Desacetyl-7ACA (18 % Umsetzung) bzw. 7ACA (3 % Umsetzung) hydrolysieren.

T1 sequence (P63186 36-587): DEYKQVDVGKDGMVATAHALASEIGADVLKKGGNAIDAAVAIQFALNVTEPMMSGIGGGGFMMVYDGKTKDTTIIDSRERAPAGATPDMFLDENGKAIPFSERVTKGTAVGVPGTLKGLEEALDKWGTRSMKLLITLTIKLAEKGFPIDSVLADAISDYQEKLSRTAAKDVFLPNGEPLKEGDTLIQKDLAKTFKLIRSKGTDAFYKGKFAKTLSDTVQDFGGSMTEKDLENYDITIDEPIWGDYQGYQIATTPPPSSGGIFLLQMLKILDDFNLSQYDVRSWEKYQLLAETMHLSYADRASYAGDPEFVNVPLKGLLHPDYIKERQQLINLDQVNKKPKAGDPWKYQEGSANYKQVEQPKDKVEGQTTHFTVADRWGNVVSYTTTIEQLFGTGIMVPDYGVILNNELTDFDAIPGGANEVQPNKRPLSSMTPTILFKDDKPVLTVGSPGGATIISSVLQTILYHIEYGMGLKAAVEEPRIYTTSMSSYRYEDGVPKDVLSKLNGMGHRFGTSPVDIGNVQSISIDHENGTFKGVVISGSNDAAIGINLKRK

SMILES | Umsetzung
CC(=O)OCC1=C(C(=O)O)N2C(=O)[C@@H](NC(=O)CCC[C@@H](N)C(=O)O)[C@H]2SC1 [Cephalosporin C] | 3%
N[C@H](CCCC(=O)N[C@@H]1C(=O)N2C(C(=O)O)=C(CO)CS[C@H]12)C(=O)O [Desacetyl-Cephalosporin C] | 18%
